Read-outs that look alike come from different tables or passages of the source.

This test has as its system multidrug resistant strain of Plasmodium yoelii Nigeriensis. In words: Antimalarial activity against multidrug resistant P. yoelii in Swiss mice (4-day treatment, observed till day 28). Format: in vivo. Conditions: Swiss mice; for inhibition in vivo at 96 mg/kg/day / responders at 96 mg/kg/day / inhibition in vivo at 48 mg/kg/day / responders at 48 mg/kg/day / inhibition in vivo at 24 mg/kg/day / responders at 24 mg/kg/day: Plasmodium yoelii; for inhibition in vivo at 96 mg/kg/day / inhibition in vivo at 48 mg/kg/day / inhibition in vivo at 24 mg/kg/day: 96 h, read-out: % Suppression on Day 4; for inhibition in vivo at 96 mg/kg/day / inhibition in vivo at 48 mg/kg/day / % Suppression on Day 4 / inhibition in vivo at 24 mg/kg/day: day 0-3, in groundnut oil; for responders at 96 mg/kg/day / responders at 48 mg/kg/day / responders at 24 mg/kg/day: 672 h, read-out: Mice alive on day-28 (converted); for responders at 96 mg/kg/day / responders at 48 mg/kg/day / Mice alive on day-28 / responders at 24 mg/kg/day: day 0-3. As for the experimental part: The antimalarial activity of the test compounds was evaluated in rodent using multidrug resistant strain of Plasmodium yoelii Nigeriensis in Swiss mice.
Random bred Swiss mice of either sex (20±2 gm) were inoculated intraperitoneally with 1×10^5 P. yoelii (MDR) parasites on day zero. Treatments with test compounds were administered to group of 5 mice each at different dose levels ranging between 12–96 mg/kg/day. Treatment was administered in groundnut oil intramuscularly and orally for 4 consecutive days (day 0–3). Blood smears from experimental mice were observed on day 4 and 7, day 10 and thereafter at regular intervals till day 28 or death of animal. Parasitaemia level on day 4 was compared with vehicle control group and percent suppression of parasitaemia in treated groups was calculated. […] The dose at which no parasitaemia develop during the observation period was reported as curative dose.

The mark [1] stands for this setting: 48 mg/kg/day, oral, 48 mg/kg/day.
Where [2] appears, read: 24 mg/kg/day, oral, 24 mg/kg/day.

As for `C=C(c1ccc(-c2ccccc2)cc1)C1COC2(CCC(Nc3ccc(Cl)cc3)CC2)OO1` (stereo not drawn) [Compound 4ba, [3-(1-Biphenyl-4-yl-Vinyl)-1,2,5-Trioxa-Spiro[5.5]undec-9-yl]-(4-Chloro-Phenyl)-Amine], under “po, oral”, the inhibition in vivo at 96 mg/kg/day turned out to be 100% and the responders at 96 mg/kg/day is 100%.
Regarding `C=C(c1ccc(-c2ccccc2)cc1)C1COC2(CCC(Nc3ccccc3C(F)(F)F)CC2)OO1` (stereo not drawn) [Compound 4bg, [3-(1-Biphenyl-4-yl-vinyl)-1,2,5-trioxa-spiro[5.5]undec-9-yl]-(2-trifluoromethyl-phenyl)-amine], under “po, oral”, the inhibition in vivo at 96 mg/kg/day was 100% and the responders at 96 mg/kg/day was 40%.
Regarding `C=C(c1ccc(Cl)cc1)C1COC2(CCC(Nc3ccc(C)cc3)CC2)OO1` (stereo not drawn) [Compound 4cb, {3-[1-(4-Chloro-Phenyl)-Vinyl]-1,2,5-Trioxa-Spiro[5.5]undec-9-yl}-p-Tolyl-Amine], for the setting “po, 48 mg/kg/day, oral”, the inhibition in vivo at 48 mg/kg/day worked out at 100% and the responders at 48 mg/kg/day was 100%.
Consider `C=C(c1ccc(Cl)cc1)C1COC2(CCC(Nc3ccc(Cl)cc3)CC2)OO1` (stereo not drawn) [Compound 4cc], for which, where the note is “24 mg/kg/day, oral”, the “Mice alive on day-28” value is listed as 4/5 and the “% Suppression on Day 4” value is 100%. Also, under “48 mg/kg/day, oral”, the “Mice alive on day-28” value is 5/5 and the “% Suppression on Day 4” value is 100%.
On to `C=C(c1ccc(Cl)cc1)C1COC2(CCC(Nc3cc(Cl)cc(Cl)c3)CC2)OO1` (stereo not drawn) [Compound 4ce, {3-[1-(4-Chloro-phenyl)-vinyl]-1,2,5-trioxa-spiro[5.5]undec-9-yl}-(3,5-dichloro-phenyl)-amine], for which, for the setting “po, 24 mg/kg/day, oral”, the inhibition in vivo at 24 mg/kg/day is 100% and the responders at 24 mg/kg/day was 40%. The inhibition in vivo at 48 mg/kg/day (po, 48 mg/kg/day, oral) turned out to be 100%. The “Mice alive on day-28” value under setting [1] is 4/5.
As to `C=C(c1ccc(Cl)cc1)C1COC2(CCC(Nc3cc(Cl)cc(Cl)c3)CC2)OO1` (stereo not drawn) [Compound 4cf, {3-[1-(4-Chloro-phenyl)-vinyl]-1,2,5-trioxa-spiro[5.5]undec-9-yl}-(3,5-dichloro-phenyl)-amine], the “% Suppression on Day 4” value worked out at 100% (24 mg/kg/day, oral) and 100% (48 mg/kg/day, oral). Also, the “Mice alive on day-28” value is 1/5 under setting [2] and 2/5 under setting [1].
As for `C=C(c1ccc(Cl)cc1)C1COC2(CCC(Nc3cccc4ccccc34)CC2)OO1` (stereo not drawn) [Compound 4ch, {3-[1-(4-Chloro-phenyl)-vinyl]-1,2,5-trioxa-spiro[5.5]undec-9-yl}-naphthalen-1-yl-amine], where the note is “po, oral”, the inhibition in vivo at 96 mg/kg/day is 100% and the responders at 96 mg/kg/day was 40%.
Take `C=C(c1ccc(Cl)cc1)C1COC2(CCC(Nc3ccccc3-c3ccccc3)CC2)OO1` (stereo not drawn) [Compound 4cj, Biphenyl-2-yl-{3-[1-(4-Chloro-Phenyl)-Vinyl]-1,2,5-Trioxa-Spiro[5.5]undec-9-yl}-Amine]: for the setting “po, 24 mg/kg/day, oral”, the inhibition in vivo at 24 mg/kg/day was 100% and the responders at 24 mg/kg/day was 40%. In addition, for the setting “po, 48 mg/kg/day, oral”, the inhibition in vivo at 48 mg/kg/day worked out at 100% and the responders at 48 mg/kg/day was 100%.
With `C=C(c1ccc(Cl)cc1)C1COC2(CCC(Nc3ccc(-c4ccccc4)cc3)CC2)OO1` (stereo not drawn) [Compound 4ck, Biphenyl-4-yl-{3-[1-(4-Chloro-Phenyl)-Vinyl]-1,2,5-Trioxa-Spiro[5.5]undec-9-yl}-Amine], for the setting “po, oral”, the inhibition in vivo at 96 mg/kg/day was 100% and the responders at 96 mg/kg/day is 40%.
Regarding `C=C(c1ccc(Cl)cc1)C1COC2(CCC(Nc3cccc(C(F)(F)F)c3)CC2)OO1` (stereo not drawn) [Compound 4co, {3-[1-(4-Chloro-phenyl)-vinyl]-1,2,5-trioxa-spiro[5.5]undec-9-yl}-(3-trifluoromethyl-phenyl)-amine], under “im, im”, the inhibition in vivo at 96 mg/kg/day turned out to be 73% and the responders at 96 mg/kg/day is 0%. Under “po, 24 mg/kg/day, oral”, the inhibition in vivo at 24 mg/kg/day was 100% and the responders at 24 mg/kg/day was 60%. For the setting “po, 48 mg/kg/day, oral”, the inhibition in vivo at 48 mg/kg/day was determined as 100% and the responders at 48 mg/kg/day was 100%. Where the note is “po, oral”, the inhibition in vivo at 96 mg/kg/day was found to be 100% and the responders at 96 mg/kg/day is 100%.
`C=C(c1ccc(OC)cc1)C1COC2(CCC(Nc3ccccc3)CC2)OO1` (stereo not drawn) [Compound 4da, {3-[1-(4-Methoxy-Phenyl)-Vinyl]-1,2,5-Trioxa-Spiro[5.5]undec-9-yl}-Phenyl-Amine]: where the note is “im, im”, the inhibition in vivo at 96 mg/kg/day was determined as 81% and the responders at 96 mg/kg/day was 0%. In addition, under “po, oral”, the inhibition in vivo at 96 mg/kg/day stood at 100% and the responders at 96 mg/kg/day is 0%.
On to `C=C(c1ccc(OC)cc1)C1COC2(CCC(Nc3ccc(Cl)cc3)CC2)OO1` (stereo not drawn) [Compound 4dc, (4-Chloro-Phenyl)-{3-[1-(4-Methoxy-Phenyl)-Vinyl]-1,2,5-Trioxa-Spiro[5.5]undec-9-yl}-Amine], for which, for the setting “im, im”, the inhibition in vivo at 96 mg/kg/day is 100% and the responders at 96 mg/kg/day was 80%. Also, where the note is “po, 24 mg/kg/day, oral”, the inhibition in vivo at 24 mg/kg/day turned out to be 100% and the responders at 24 mg/kg/day was 80%. Moreover, under “po, 48 mg/kg/day, oral”, the inhibition in vivo at 48 mg/kg/day is 100% and the responders at 48 mg/kg/day was 100%. In addition, where the note is “po, oral”, the inhibition in vivo at 96 mg/kg/day came to 100% and the responders at 96 mg/kg/day was 100%.
In the case of `C=C(c1ccc(OC)cc1)C1COC2(CCC(Nc3cc(Cl)cc(Cl)c3)CC2)OO1` (stereo not drawn) [Compound 4dd, (3,5-Dichloro-Phenyl)-{3-[1-(4-Methoxy-Phenyl)-Vinyl]-1,2,5-Trioxa-Spiro[5.5]undec-9-yl}-Amine], where the note is “po, oral”, the inhibition in vivo at 96 mg/kg/day worked out at 100% and the responders at 96 mg/kg/day was 80%.
In the case of `C=C(c1ccc(OC)cc1)C1COC2(CCC(Nc3cccc4ccccc34)CC2)OO1` (stereo not drawn) [Compound 4df, {3-[1-(4-Methoxy-phenyl)-vinyl]-1,2,5-trioxa-spiro[5.5]undec-9-yl}-naphthalen-1-yl-amine], for the setting “po, 48 mg/kg/day, oral”, the inhibition in vivo at 48 mg/kg/day came out at 100% and the responders at 48 mg/kg/day is 40%. Under “po, oral”, the inhibition in vivo at 96 mg/kg/day was determined as 100% and the responders at 96 mg/kg/day is 100%.
Take `C=C(c1ccc(OC)cc1)C1COC2(CCC(Nc3ccccc3-c3ccccc3)CC2)OO1` (stereo not drawn) [Compound 4dg, Biphenyl-2-yl-{3-[1-(4-methoxy-phenyl)-vinyl]-1,2,5-trioxa-spiro[5.5]undec-9-yl}-amine]: the inhibition in vivo at 24 mg/kg/day (po, 24 mg/kg/day, oral) was determined as 91%. Further, the inhibition in vivo at 48 mg/kg/day (po, 48 mg/kg/day, oral) came out at 100%. In addition, the “Mice alive on day-28” value under setting [2] was 1/5 and the “Mice alive on day-28” value under setting [1] is recorded as 3/5.
For the compound `C=C(c1ccc(OC)cc1)C1COC2(CCC(Nc3ccccc3-c3ccccc3)CC2)OO1` (stereo not drawn) [Compound 4dh, Biphenyl-2-yl-{3-[1-(4-methoxy-phenyl)-vinyl]-1,2,5-trioxa-spiro[5.5]undec-9-yl}-amine], the “% Suppression on Day 4” value by setting is: under setting [2], 100%; (48 mg/kg/day, oral) 100%. Also, the “Mice alive on day-28” value runs as follows: under setting [2], 5/5; under setting [1], 5/5.
Take `C=C(c1ccc(OC)cc1)C1COC2(CCC(Nc3cccc(C(F)(F)F)c3)CC2)OO1` (stereo not drawn) [Compound 4dm, {3-[1-(4-Methoxy-Phenyl)-Vinyl]-1,2,5-Trioxa-Spiro[5.5]undec-9-yl}-(3-Trifluoromethyl-Phenyl)-Amine]: where the note is “im, im”, the inhibition in vivo at 96 mg/kg/day stood at 100% and the responders at 96 mg/kg/day is 0%. Also, for the setting “po, 24 mg/kg/day, oral”, the inhibition in vivo at 24 mg/kg/day worked out at 100% and the responders at 24 mg/kg/day was 100%. Moreover, for the setting “po, 48 mg/kg/day, oral”, the inhibition in vivo at 48 mg/kg/day was 100% and the responders at 48 mg/kg/day is 100%. Under “po, oral”, the inhibition in vivo at 96 mg/kg/day was found to be 100% and the responders at 96 mg/kg/day was 100%.
For `C=C(c1ccc(C)cc1)C1COC2(CCC(Nc3ccccc3)CC2)OO1` (stereo not drawn) [Compound 4ea, Phenyl-[3-(1-p-Tolyl-Vinyl)-1,2,5-Trioxa-Spiro[5.5]undec-9-yl]-Amine], where the note is “im, im”, the inhibition in vivo at 96 mg/kg/day amounted to 96% and the responders at 96 mg/kg/day is 0%. Further, for the setting “po, oral”, the inhibition in vivo at 96 mg/kg/day is 100% and the responders at 96 mg/kg/day is 100%.
Take `C=C(c1ccc(C)cc1)C1COC2(CCC(Nc3ccc(OC)cc3)CC2)OO1` (stereo not drawn) [Compound 4eb, (4-Methoxy-Phenyl)-[3-(1-p-Tolyl-Vinyl)-1,2,5-Trioxa-Spiro[5.5]undec-9-yl]-Amine]: where the note is “im, im”, the inhibition in vivo at 96 mg/kg/day turned out to be 93% and the responders at 96 mg/kg/day is 0%. For the same compound, where the note is “po, oral”, the inhibition in vivo at 96 mg/kg/day amounted to 100% and the responders at 96 mg/kg/day was 100%.
With `C=C(c1ccc(C)cc1)C1COC2(CCC(Nc3ccc(Cl)cc3)CC2)OO1` (stereo not drawn) [Compound 4ec, (4-Chloro-Phenyl)-[3-(1-p-Tolyl-Vinyl)-1,2,5-Trioxa-Spiro[5.5]undec-9-yl]-Amine], under “po, oral”, the inhibition in vivo at 96 mg/kg/day was 100% and the responders at 96 mg/kg/day was 100%.

(Values after patent US7071226B1, “Amino-functionalized 1,2,4-trioxanes useful as antimalarial agents and process for preparation thereof” (Council of Scientific and Industrial Research, priority 2004, dated 2006).)
